# Measured values from patent publication US9862707B2, “TrkA kinase inhibitors, compositions and methods thereof” (Merck Sharp & Dohme Corp., priority 2014, dated 2018).
# pIC50: −log10 of the molar value.
# Target: human TrkA receptor (Homo sapiens (Human), UniProt P04629)
# Experiment: TrkA functional activity, DiscoverX PathHunter assay
# Format: cell-based
# Conditions: U2OS cells expressing human TrkA-PK, Shc1-EA and p75NTR; compound 1 h, then NGF at ~80% of maximal response for 3 h; luminescence
# Sequence of human TrkA receptor (P04629 33-796): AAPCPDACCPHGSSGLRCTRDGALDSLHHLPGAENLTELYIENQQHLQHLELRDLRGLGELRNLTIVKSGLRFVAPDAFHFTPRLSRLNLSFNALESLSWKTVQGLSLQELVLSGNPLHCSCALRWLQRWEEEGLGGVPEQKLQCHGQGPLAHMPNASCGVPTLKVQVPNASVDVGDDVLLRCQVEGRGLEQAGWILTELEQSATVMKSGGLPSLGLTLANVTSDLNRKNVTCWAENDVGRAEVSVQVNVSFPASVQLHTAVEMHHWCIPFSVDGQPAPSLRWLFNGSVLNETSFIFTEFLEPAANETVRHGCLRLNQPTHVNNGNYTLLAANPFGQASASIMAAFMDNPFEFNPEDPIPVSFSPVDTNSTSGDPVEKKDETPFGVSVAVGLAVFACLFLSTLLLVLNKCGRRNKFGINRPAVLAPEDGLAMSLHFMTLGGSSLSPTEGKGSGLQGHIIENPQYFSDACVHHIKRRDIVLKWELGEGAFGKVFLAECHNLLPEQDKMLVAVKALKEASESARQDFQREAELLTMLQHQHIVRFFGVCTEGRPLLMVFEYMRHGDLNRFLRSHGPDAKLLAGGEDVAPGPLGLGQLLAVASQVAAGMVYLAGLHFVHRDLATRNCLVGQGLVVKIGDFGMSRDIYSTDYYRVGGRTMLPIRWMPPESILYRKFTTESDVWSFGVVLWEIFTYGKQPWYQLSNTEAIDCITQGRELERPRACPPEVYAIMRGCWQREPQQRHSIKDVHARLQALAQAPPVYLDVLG
row,pIC50,SMILES
1,8.41,"CC(C)(O)c1cnc2c(NC(=O)c3cc(-c4ncccn4)c(C(F)(F)F)cc3F)n(-c3ccccc3)nc2c1 [Compound 40, 2-Fluoro-N-(6-(2-hydroxypropan-2-yl)-2-phenyl-2H-pyrazolo[4,3-b]pyridin-3-yl)-5-(pyrimidin-2-yl)-4-(trifluoromethyl)benzamide]"
2,9.80,"Cn1ccc(-c2cc(C(=O)Nc3c4ncc(C(C)(C)O)cc4nn3-c3ccccc3)c(F)cc2C(F)(F)F)n1 [Compound 41, 2-Fluoro-N-(6-(2-hydroxypropan-2-yl)-2-phenyl-2H-pyrazolo[4,3-b]pyridin-3-yl)-5-(1-methyl-1H-pyrazol-3-yl)-4-(trifluoromethyl)benzamide]"
3,7.48,"Cn1ccc(-c2cc(C(=O)Nc3c4nc(C(C)(C)O)ncc4nn3-c3ccccc3)c(F)cc2C(F)(F)F)n1 [Compound 43, 2-Fluoro-N-(5-(2-hydroxypropan-2-yl)-2-phenyl-2H-pyrazolo[4,3-d]pyrimidin-3-yl)-5-(1-methyl-1H-pyrazol-3-yl)-4-(trifluoromethyl)benzamide]"
4,7.92,"CC(C)(O)c1cnc2nn(-c3ccccc3)c(NC(=O)c3cc(-c4ncccn4)c(C(F)(F)F)cc3F)c2c1 [Compound 45, 2-fluoro-N-[5-(1-hydroxy-1-methylethyl)-2-phenyl-2H-pyrazolo[3,4-b]pyridin-3-yl]-5-pyrimidin-2-yl-4-(trifluoromethyl)benzamide]"
5,8.77,"CC(C)(O)c1ccc2c(NC(=O)c3cc(-c4ncccn4)c(C(F)(F)F)cc3Cl)n(-c3ccccc3)nc2c1 [Compound 46, 2-chloro-N-[6-(1-hydroxy-1-methylethyl)-2-phenyl-2H-indazol-3-yl]-5-pyrimidin-2-yl-4-(trifluoromethyl)benzamide]"
6,8.59,"CC(C)(O)c1cnc2c(NC(=O)c3cc(-c4cc[nH]n4)c(C(F)(F)F)cc3F)n(-c3ccccc3)nc2c1 [Compound 47, 2-fluoro-N-[6-(1-hydroxy-1-methylethyl)-2-phenyl-2H-pyrazolo[4,3-b]pyridin-3-yl]-5-(1H-pyrazol-3-yl)-4-(trifluoromethyl)benzamide]"
7,8.28,"Cn1ccc(-c2cc(C(=O)Nc3c4ncc(C(C)(C)O)cc4nn3-c3ccccc3)ccc2C(F)(F)F)n1 [Compound 48, N-[6-(1-hydroxy-1-methylethyl)-2-phenyl-2H-pyrazolo[4,3-b]pyridin-3-yl]-3-(1-methyl-1H-pyrazol-3-yl)-4-(trifluoromethyl)benzamide]"
8,8.80,"O=C(Nc1c2cc(C3(O)CC3)ccc2nn1-c1ccccc1)c1cc(-c2ncccn2)c(C(F)(F)F)cc1F [Compound 50, 2-Fluoro-N-(5-(1-hydroxycyclopropyl)-2-phenyl-2H-indazol-3-yl)-5-(pyrimidin-2-yl)-4-(trifluoromethyl)benzamide]"
9,8.19,"Cn1ccc(-c2cc(C(=O)Nc3c4cc(C5(O)CC5)ccc4nn3-c3ccccc3)ccc2C(F)(F)F)n1 [Compound 51, N-[5-(1-hydroxycyclopropyl)-2-phenyl-2H-indazol-3-yl]-3-(1-methyl-1H-pyrazol-3-yl)-4-(trifluoromethyl)benzamide]"
10,8.66,"O=C(Nc1c2ccc(CCO)cc2nn1-c1ccccc1)c1cc(-c2ncccn2)c(C(F)(F)F)cc1F [Compound 60, 2-Fluoro-N-(6-(2-hydroxyethyl)-2-phenyl-2H-indazol-3-yl)-5-(pyrimidin-2-yl)-4-(trifluoromethyl)benzamide]"
11,8.51,"O=C(Nc1c2cc(CCO)ccc2nn1-c1ccccc1)c1cc(-c2ncccn2)c(C(F)(F)F)cc1F [Compound 61, 2-fluoro-N-[5-(2-hydroxyethyl)-2-phenyl-2H-indazol-3-yl]-5-pyrimidin-2-yl-4-(trifluoromethyl)benzamide]"
12,7.15,"NCc1cnc2c(NC(=O)c3cc(-c4ncccn4)c(C(F)(F)F)cc3F)n(-c3ccccc3)nc2c1 [Compound 66, N-(6-(Aminomethyl)-2-phenyl-2H-pyrazolo[4,3-b]pyridin-3-yl)-2-fluoro-5-(pyrimidin-2-yl)-4-(trifluoromethyl)benzamide]"
13,7.68,"CN(C)Cc1ccc2nn(-c3ccccc3)c(NC(=O)c3ccc(C(F)(F)F)c(-c4ccn(C)n4)c3)c2c1 [Compound 68, N-{5-[(dimethylamino)methyl]-2-phenyl-2H-indazol-3-yl}-3-(1-methyl-1H-pyrazol-3-yl)-4-(trifluoromethyl)benzamide]"
14,8.74,"Cn1ccc(-c2cc(C(=O)Nc3c4ccc(CN)cc4nn3-c3ccccc3)c(F)cc2C(F)(F)F)n1 [Compound 71, N-[6-(aminomethyl)-2-phenyl-2H-indazol-3-yl]-2-fluoro-5-(1-methyl-1H-pyrazol-3-yl)-4-(trifluoromethyl)benzamide]"
15,8.19,"Cn1ccc(-c2cc(C(=O)Nc3c4ccc(CNCCO)cc4nn3-c3ccccc3)c(F)cc2C(F)(F)F)n1 [Compound 72, 2-fluoro-N-(6-{[(2-hydroxyethyl)amino]methyl}-2-phenyl-2H-indazol-3-yl)-5-(1-methyl-1H-pyrazol-3-yl)-4-(trifluoromethyl)benzamide]"
16,8.51,"NC(=O)c1ccc2c(NC(=O)c3cc(-c4ncccn4)c(C(F)(F)F)cc3F)n(-c3ccccc3)nc2c1 [Compound 73, 3-(2-Fluoro-5-(pyrimidin-2-yl)-4-(trifluoromethyl)benzamido)-2-phenyl-2H-indazole-6-carboxamide]"

row,pIC50,SMILES
1,9.24,"Cn1ccc(-c2cc(C(=O)Nc3c4ccc(C(N)=O)cc4nn3-c3ccccc3)c(F)cc2C(F)(F)F)n1 [Compound 74, 3-(2-Fluoro-5-(1-methyl-1H-pyrazol-3-yl)-4-(trifluoromethyl)benzamido)-2-phenyl-2H-indazole-6-carboxamide]"
2,8.14,"NC(=O)c1cnc2c(NC(=O)c3cc(-c4ncccn4)c(C(F)(F)F)cc3F)n(-c3ccccc3)nc2c1 [Compound 75, 3-(2-Fluoro-5-(pyrimidin-2-yl)-4-(trifluoromethyl)benzamido)-2-phenyl-2H-pyrazolo[4,3-b]pyridine-6-carboxamide]"
3,7.44,"NC(=O)c1cc2nn(-c3ccccc3)c(NC(=O)c3cc(-c4ncccn4)c(C(F)(F)F)cc3F)c2cn1 [Compound 76, 3-(2-Fluoro-5-(pyrimidin-2-yl)-4-(trifluoromethyl)benzamido)-2-phenyl-2H-pyrazolo[4,3-c]pyridine-6-carboxamide]"
4,8.89,"Cc1ccccc1-n1nc2cc(C(N)=O)ccc2c1NC(=O)c1cc(-c2ccn(C)n2)c(C(F)(F)F)cc1F [Compound 77, 3-(2-Fluoro-5-(1-methyl-1H-pyrazol-3-yl)-4-(trifluoromethyl)benzamido)-2-(o-tolyl)-2H-indazole-6-carboxamide]"
5,8.44,"NC(=O)c1ccc2c(NC(=O)c3cc(-c4cc[nH]n4)c(C(F)(F)F)cc3F)n(-c3ccccc3)nc2c1 [Compound 78, 3-({[2-fluoro-5-(1H-pyrazol-3-yl)-4-(trifluoromethyl)phenyl]carbonyl}amino)-2-phenyl-2H-indazole-6-carboxamide]"
6,7.96,"Cn1ccc(-c2cc(C(=O)Nc3c4cc(C(N)=O)ccc4nn3-c3ccccc3)ccc2C(F)(F)F)n1 [Compound 79, 3-({[3-(1-methyl-1H-pyrazol-3-yl)-4-(trifluoromethyl)phenyl]carbonyl}amino)-2-phenyl-2H-indazole-5-carboxamide]"
7,7.49,"NC(=O)c1ccc2nn(-c3ccccc3)c(NC(=O)c3cc(-c4ncccn4)c(C(F)(F)F)cc3F)c2n1 [Compound 80, 3-({[2-fluoro-5-pyrimidin-2-yl-4-(trifluoromethyl)phenyl]carbonyl}amino)-2-phenyl-2H-pyrazolo[4,3-b]pyridine-5-carboxamide]"
8,8.54,"NC(=O)c1ccc2c(NC(=O)c3cc(-c4ccccn4)c(C(F)(F)F)cc3F)n(-c3ccccc3)nc2c1 [Compound 81, 3-({[2-fluoro-5-pyridin-2-yl-4-(trifluoromethyl)phenyl]carbonyl}amino)-2-phenyl-2H-indazole-6-carboxamide]"
9,8.57,"Cn1ccc(-c2cc(C(=O)Nc3c4ccc(C(N)=O)cc4nn3-c3ccccc3)ccc2C(F)(F)F)n1 [Compound 82, 3-({[3-(1-methyl-1H-pyrazol-3-yl)-4-(trifluoromethyl)phenyl]carbonyl}amino)-2-phenyl-2H-indazole-6-carboxamide]"
10,8.21,"NC(=O)c1ccc2c(NC(=O)c3cc(-c4ccccn4)c(C(F)(F)F)cc3Cl)n(-c3ccccc3)nc2c1 [Compound 83, 3-({[2-chloro-5-pyridin-2-yl-4-(trifluoromethyl)phenyl]carbonyl}amino)-2-phenyl-2H-indazole-6-carboxamide]"
11,8.59,"NC(=O)c1cnc2c(NC(=O)c3cc(-c4ccccn4)c(C(F)(F)F)cc3F)n(-c3ccccc3)nc2c1 [Compound 84, 3-({[2-fluoro-5-pyridin-2-yl-4-(trifluoromethyl)phenyl]carbonyl}amino)-2-phenyl-2H-pyrazolo[4,3-b]pyridine-6-carboxamide]"
12,8.48,"NC(=O)c1cnc2c(NC(=O)c3cc(-c4ccccn4)c(C(F)(F)F)cc3Cl)n(-c3ccccc3)nc2c1 [Compound 85, 3-({[2-chloro-5-pyridin-2-yl-4-(trifluoromethyl)phenyl]carbonyl}amino)-2-phenyl-2H-pyrazolo[4,3-b]pyridine-6-carboxamide]"
13,8.55,"Cn1ccc(-c2cc(C(=O)Nc3c4ncc(C(N)=O)cc4nn3-c3ccccc3)ccc2C(F)(F)F)n1 [Compound 86, 3-({[3-(1-methyl-1H-pyrazol-3-yl)-4-(trifluoromethyl)phenyl]carbonyl}amino)-2-phenyl-2H-pyrazolo[4,3-b]pyridine-6-carboxamide]"
14,9.20,"Cn1ccc(-c2cc(C(=O)Nc3c4ncc(C(N)=O)cc4nn3-c3ccccc3)c(F)cc2C(F)(F)F)n1 [Compound 87, 3-({[2-fluoro-5-(1-methyl-1H-pyrazol-3-yl)-4-(trifluoromethyl)phenyl]carbonyl}amino)-2-phenyl-2H-pyrazolo[4,3-b]pyridine-6-carboxamide]"
15,7.89,"NC(=O)c1cnc2c(NC(=O)c3ccc(C(F)(F)F)c(-c4ncccn4)c3)n(-c3ccccc3)nc2c1 [Compound 88, 2-phenyl-3-({[3-pyrimidin-2-yl-4-(trifluoromethyl)phenyl]carbonyl}amino)-2H-pyrazolo[4,3-b]pyridine-6-carboxamide]"
